Results as given in EP4722216A1, “PYRROLOPYRIMIDINE DERIVATIVE AND USE THEREOF IN MEDICINE” (Kangbaida (Sichuan) Biotechnology Co., Ltd., priority 2023, dated 2024).

Legend:
FGFR1 = target: T1, FGFR1 (Homo sapiens, UniProt P11362); assay: FGFR1-4 enzymology, HTRF method (FGFR1); format: biochemical; conditions: FGFR1 enzyme 0.10 nM, substrate (TK) 1 µM, ATP 40 µM
T1 construct: purchased Carna 08-133
Method: (§1) The inhibitory effects of compounds on the enzymatic activities of FGFR1, 2, 3, and 4 were detected by using HTRF method (PerkinElmer, 62TK0PEJ). 2× Enzyme and 2× substrate /ATP mixed solutions were prepared using a buffer solution. The final concentrations of FGFR1 enzyme (Cama, 08-133), the substrate (TK), and ATP were 0.10 nM, 1 µM, and 40 µM, respectively; the final concentrations of FGFR2 (Carna, 08-134), the substrate (TK), and ATP were 0.08 nM, 1 µM, and 20 µM, respectively; the final concentrations of FGFR3 (Cama, 08-135), the substrate (TK), and ATP were 0.30 nM, 1 µM, and 50 µM, respectively; and the final concentrations of FGFR4 (Carna, 08-136), the substrate (TK), and ATP were 10 nM, 1 µM, and 50 µM, respectively. The compound stock solution was diluted to 100× working concentration using DMSO. 50 nL/well of the compound was transferred to a 384-well plate using Echo, with 2 replicate wells per concentration. 2.5 µL/well of 2× kinase solution was added to reaction wells, mixed and incubated at 25°C for 10 min. 2.5 µL/well of 2× substrate/ATP solution was added to reaction wells and incubated at 25°C for 50 min. 2× Streptavidin-XL665/Cryptate-antibody mixed solution was prepared using a detection buffer solution (containing EDTA). 5 µL/well of a kinase detection reagent was added to the reaction wells and incubated at 25°C for 60 min. Fluorescence signals at 620 nm (Cryptate) and 665 nm (XL665) were read by a multifunctional microplate reader. IC50 (median inhibitory concentration) of the compound was calculated using the GraphPad nonlinear fitting formula, Y=Bottom + (Top-Bottom)/(1+10^((LogIC50-X) ×HillSlope)), in which X: the logarithmic value of the concentration of the compound; and Y: the inhibition rate of the compound (% inhibition).

FGFR2 = target: T2, FGFR2 (Homo sapiens, UniProt P21802); assay: FGFR1-4 enzymology, HTRF method (FGFR2); format: biochemical; conditions: FGFR2 0.08 nM, substrate (TK) 1 µM, ATP 20 µM
T2 construct: purchased Carna 08-134
Method: as §1

FGFR4 = target: T3, FGFR4 (Homo sapiens, UniProt P22455); assay: FGFR1-4 enzymology, HTRF method (FGFR4); format: biochemical; conditions: FGFR4 10 nM, substrate (TK) 1 µM, ATP 50 µM
T3 construct: purchased Carna 08-136
Method: as §1

FGFR3 = target: T4, FGFR3 (Homo sapiens, UniProt P22607); assay: FGFR1-4 enzymology, HTRF method (FGFR3); format: biochemical; conditions: FGFR3 0.30 nM, substrate (TK) 1 µM, ATP 50 µM
T4 construct: purchased Carna 08-135
Method: as §1

[1] = Pharmacokinetic study in rats in vivo; conditions: SD rats; for F: intragastric 5 mg/kg versus intravenous 1 mg/kg; for AUC0-t / Cmax / half-life: male, rat, po, Plasma, intragastric administration 5 mg/kg
Method: An appropriate amount of the test substance was weighed and formulated into a 0.5 mg/mL transparent and clear solution using 10% DMSO + 5% HS-15 + 85% Saline for intravenous administration. The test substance was formulated into a 1 mg/mL uniform suspension using 10% DMSO + 5% HS-15 + 85% Saline for intragastric administration. 6 healthy male SD rats (Charles River, SPF grade) were taken, with 3 animals assigned to the intravenous group and three to the intragastric group, respectively. With 3 animals per time point, blood samples were collected via the jugular vein. Blood samples were collected at 5 min, 15 min, 0.5, 1, 2, 4, 8, and 24 h after intravenous administration of the test substance (1 mg/kg), and blood samples were collected at 15 min, 0.5, 1, 2, 4, 6, 8, and 24 h after intragastric administration of the test substance (5 mg/kg). After anticoagulation with EDTA-K2, the blood samples were centrifuged at 6000 g at 4°C for 5 min to separate plasma, and all plasma samples were stored at -70°C for testing. The drug concentration of the test substance in plasma was determined by LC-MS/MS method (with gliclazide as an internal standard), and the main pharmacokinetic parameters were calculated by Winnolin 8.3 non-compartment model. The intragastric administration results are as follows: […]

[2] = Pharmacokinetic study on mouse brain tissue (plasma/cerebrospinal fluid/brain tissue); format: in vivo; conditions: ICR mice, intragastric administration 10 mg/kg; for Tmax / half-life: male, mouse, po
Method: An appropriate amount of the test substance was weighed and formulated into a 1 mg/mL transparent and clear solution using 10% DMSO + 5% HS-15 + 85% Saline for intragastric administration. 24 healthy male ICR mice (Charles River, SPF grade) were taken, with 3 animals per time point. Blood samples were collected at 15 min, 0.5, 1, 2, 4, 6, 8, and 24 h after intragastric administration of the test substance (10 mg/kg). The blood sample was anticoagulated with EDTA-K2 and then centrifuged at 6000 g at 4°C for 5 min to separate plasma. The plasma was stored at - 70°C for testing. After blood collection, the animal was sacrificed to collect cerebrospinal fluid, which was stored at -70°C for testing. The brain tissue was rinsed with ice-cold normal saline to remove the residual blood, blotted dry with absorbent paper, and then stored at -70°C for testing. The drug concentration of the specified compound in the plasma/cerebrospinal fluid/brain tissue was determined using LC-MS/MS method (with Gliclazide as an internal standard). The main pharmacokinetic parameters were calculated using a Winnolin 8.3 noncompartmental model.

FGFR2 N549H = FGFR2 N549H (Homo sapiens, UniProt P21802, N549H); assay: FGFR2 and FGFR3 mutant enzymology, HTRF method (FGFR2 N549H); format: biochemical; conditions: kinase 0.02 nM, substrate 1 µM, ATP 9 µM
Method: (§2) The inhibitory effects of the compounds on the enzymatic activities of FGFR2 and FGFR3 mutants by using HTRF method (PerkinElmer, 62TK0PEJ). 2× Enzyme and 2× substrate /ATP mixed solutions were prepared using a buffer solution.
(§3) The compound stock solution was diluted to 100× working concentration using DMSO. 50 nL/well of the compound was transferred to a 384-well plate using Echo, with 2 replicate wells per concentration. 2.5 µL/well of 2× kinase solution was added to reaction wells, mixed and incubated at 25°C for 10 min. 2.5 µL/well of 2× substrate/ATP solution was added to reaction wells and incubated at 25°C for 50 min. 2× Streptavidin-XL665/Cryptate-antibody mixed solution was prepared using a detection buffer solution (containing EDTA). 5 µL/well of a kinase detection reagent was added to the reaction wells and incubated at 25°C for 60 min. Fluorescence signals at 620 nm (Cryptate) and 665 nm (XL665) were read by a multifunctional microplate reader. According to the test results, the inhibition rate was calculated. […] IC50 (median inhibitory concentration) of the compound was calculated using the GraphPad nonlinear fitting formula, Y = Bottom + (Top-Bottom)/(1+10^((LogIC50-X) ×HillSlope)), in which X: the logarithmic value of the concentration of the compound; and Y: the inhibition rate of the compound (% inhibition).

FGFR3 V555M = FGFR3 V555M (Homo sapiens, UniProt P22607, V555M); assay: FGFR2 and FGFR3 mutant enzymology, HTRF method (FGFR3 V555M); format: biochemical; conditions: kinase 0.55 nM, substrate 1 µM, ATP 20 µM
Method: as §2, §3

FGFR2 V564I = FGFR2 V564I (Homo sapiens, UniProt P21802, V564I); assay: FGFR2 and FGFR3 mutant enzymology, HTRF method (FGFR2 V564I); format: biochemical; conditions: kinase 0.03 nM, substrate 1 µM, ATP 20 µM
Method: as §2, §3

FGFR2 V564F = FGFR2 V564F (Homo sapiens, UniProt P21802, V564F); assay: FGFR2 and FGFR3 mutant enzymology, HTRF method (FGFR2 V564F); format: biochemical; conditions: kinase 0.02 nM, substrate 1 µM, ATP 15 µM
Method: as §2, §3

FGFR3 K650M = FGFR3 K650M (Homo sapiens, UniProt P22607, K650M); assay: FGFR2 and FGFR3 mutant enzymology, HTRF method (FGFR3 K650M); format: biochemical; conditions: kinase 0.10 nM, substrate 1 µM, ATP 12 µM
Method: as §2, §3

T3 sequence (P22455 22-802): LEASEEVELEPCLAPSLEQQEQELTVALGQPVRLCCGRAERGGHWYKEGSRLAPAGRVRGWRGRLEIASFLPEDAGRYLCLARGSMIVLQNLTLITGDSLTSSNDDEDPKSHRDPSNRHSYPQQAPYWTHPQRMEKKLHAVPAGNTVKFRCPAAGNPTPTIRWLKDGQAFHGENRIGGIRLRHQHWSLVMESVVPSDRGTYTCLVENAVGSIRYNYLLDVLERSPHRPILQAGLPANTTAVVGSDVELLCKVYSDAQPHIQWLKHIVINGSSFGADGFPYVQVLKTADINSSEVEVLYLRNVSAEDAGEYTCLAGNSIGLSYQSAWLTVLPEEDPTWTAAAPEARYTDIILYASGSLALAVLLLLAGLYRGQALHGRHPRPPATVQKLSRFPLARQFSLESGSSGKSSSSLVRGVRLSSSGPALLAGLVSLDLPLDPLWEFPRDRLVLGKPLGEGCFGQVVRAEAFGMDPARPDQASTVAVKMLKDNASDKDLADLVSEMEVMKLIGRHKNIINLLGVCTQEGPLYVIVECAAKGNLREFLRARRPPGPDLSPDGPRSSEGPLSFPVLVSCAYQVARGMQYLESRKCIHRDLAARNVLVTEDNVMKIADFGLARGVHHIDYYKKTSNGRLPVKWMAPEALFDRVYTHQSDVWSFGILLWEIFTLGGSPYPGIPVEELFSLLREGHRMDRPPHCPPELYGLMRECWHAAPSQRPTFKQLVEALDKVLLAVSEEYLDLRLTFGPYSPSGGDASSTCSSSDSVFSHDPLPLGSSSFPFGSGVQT
T2 sequence (P21802 22-821): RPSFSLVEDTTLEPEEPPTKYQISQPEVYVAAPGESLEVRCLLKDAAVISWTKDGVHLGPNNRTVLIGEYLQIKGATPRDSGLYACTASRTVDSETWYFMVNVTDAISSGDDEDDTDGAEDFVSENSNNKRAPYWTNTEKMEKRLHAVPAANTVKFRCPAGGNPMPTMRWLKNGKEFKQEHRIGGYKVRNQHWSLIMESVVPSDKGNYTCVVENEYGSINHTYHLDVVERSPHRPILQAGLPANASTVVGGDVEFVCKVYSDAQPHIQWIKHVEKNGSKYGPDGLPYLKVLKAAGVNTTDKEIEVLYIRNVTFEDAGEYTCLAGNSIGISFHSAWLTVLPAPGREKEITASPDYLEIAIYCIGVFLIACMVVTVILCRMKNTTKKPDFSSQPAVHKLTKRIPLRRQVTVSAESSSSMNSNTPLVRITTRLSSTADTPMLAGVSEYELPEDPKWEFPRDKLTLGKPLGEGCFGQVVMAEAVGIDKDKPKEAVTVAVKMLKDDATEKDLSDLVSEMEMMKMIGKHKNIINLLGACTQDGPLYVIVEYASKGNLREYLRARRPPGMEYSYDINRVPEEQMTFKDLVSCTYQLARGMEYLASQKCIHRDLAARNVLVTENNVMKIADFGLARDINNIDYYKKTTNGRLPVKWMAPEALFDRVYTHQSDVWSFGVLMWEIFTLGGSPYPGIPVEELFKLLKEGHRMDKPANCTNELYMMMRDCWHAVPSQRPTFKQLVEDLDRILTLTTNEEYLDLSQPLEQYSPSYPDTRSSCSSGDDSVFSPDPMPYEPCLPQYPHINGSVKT
T4 sequence (P22607 23-806): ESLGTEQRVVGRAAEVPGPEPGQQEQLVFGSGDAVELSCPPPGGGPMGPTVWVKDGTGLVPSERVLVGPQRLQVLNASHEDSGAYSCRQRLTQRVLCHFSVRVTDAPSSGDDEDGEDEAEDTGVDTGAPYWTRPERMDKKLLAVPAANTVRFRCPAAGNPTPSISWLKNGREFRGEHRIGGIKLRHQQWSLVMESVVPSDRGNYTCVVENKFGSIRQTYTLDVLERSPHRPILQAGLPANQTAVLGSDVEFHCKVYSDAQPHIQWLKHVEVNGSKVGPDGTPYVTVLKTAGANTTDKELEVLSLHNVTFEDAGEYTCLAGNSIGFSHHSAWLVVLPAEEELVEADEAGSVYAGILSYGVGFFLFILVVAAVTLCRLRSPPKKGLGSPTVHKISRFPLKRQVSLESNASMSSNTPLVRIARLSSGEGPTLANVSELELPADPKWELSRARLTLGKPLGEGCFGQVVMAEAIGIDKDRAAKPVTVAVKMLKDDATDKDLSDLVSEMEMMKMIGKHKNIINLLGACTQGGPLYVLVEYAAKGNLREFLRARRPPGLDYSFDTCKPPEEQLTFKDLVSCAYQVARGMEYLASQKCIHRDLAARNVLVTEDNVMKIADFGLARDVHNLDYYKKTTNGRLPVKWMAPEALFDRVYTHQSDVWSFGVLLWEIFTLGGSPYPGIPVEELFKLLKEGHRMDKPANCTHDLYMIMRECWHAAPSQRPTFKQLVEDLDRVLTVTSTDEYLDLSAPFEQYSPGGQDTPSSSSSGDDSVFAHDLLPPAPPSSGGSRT
T1 sequence (P11362 22-822): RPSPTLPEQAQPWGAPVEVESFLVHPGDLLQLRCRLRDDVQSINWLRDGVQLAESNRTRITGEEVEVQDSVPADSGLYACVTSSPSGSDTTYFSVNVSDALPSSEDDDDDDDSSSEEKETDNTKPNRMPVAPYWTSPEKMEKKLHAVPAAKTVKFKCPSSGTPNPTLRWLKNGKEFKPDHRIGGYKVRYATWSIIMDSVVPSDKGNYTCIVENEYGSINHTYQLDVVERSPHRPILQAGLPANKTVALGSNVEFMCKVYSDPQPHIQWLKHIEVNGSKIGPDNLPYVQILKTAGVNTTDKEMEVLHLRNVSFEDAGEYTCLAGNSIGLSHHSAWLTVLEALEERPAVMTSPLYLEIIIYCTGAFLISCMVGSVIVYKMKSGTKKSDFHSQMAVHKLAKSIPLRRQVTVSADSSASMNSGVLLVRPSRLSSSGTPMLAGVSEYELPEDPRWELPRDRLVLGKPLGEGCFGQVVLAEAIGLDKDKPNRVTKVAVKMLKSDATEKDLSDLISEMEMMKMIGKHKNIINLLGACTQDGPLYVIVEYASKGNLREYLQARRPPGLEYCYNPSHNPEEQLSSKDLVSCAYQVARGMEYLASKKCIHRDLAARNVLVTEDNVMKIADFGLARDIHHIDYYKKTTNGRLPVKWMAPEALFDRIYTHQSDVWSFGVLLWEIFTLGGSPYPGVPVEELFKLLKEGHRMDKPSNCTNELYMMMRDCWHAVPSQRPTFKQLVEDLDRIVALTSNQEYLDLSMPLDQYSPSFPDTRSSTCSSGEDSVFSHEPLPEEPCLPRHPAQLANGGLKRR
FGFR2 V564F, sequence (P21802 22-821 V564F): as the sequence (P21802 22-821) above, with V543F counted along it
FGFR2 N549H, sequence (P21802 22-821 N549H): as the sequence (P21802 22-821) above, with N528H counted along it
FGFR3 V555M, sequence (P22607 23-806 V555M): as the sequence (P22607 23-806) above, with V533M counted along it
FGFR3 K650M, sequence (P22607 23-806 K650M): as the sequence (P22607 23-806) above, with K628M counted along it
FGFR2 V564I, sequence (P21802 22-821 V564I): as the sequence (P21802 22-821) above, with V543I counted along it

Row | SMILES | IC50 (FGFR1) | IC50 (FGFR2) | IC50 (FGFR4) | IC50 (FGFR3) | F [1] | AUC0-t [1] | Cmax [1] | half-life [1] | AUC0-t ([2]; Brain tissue) | AUC0-t ([2]; Cerebrospinal fluid) | AUC0-t ([2]; Plasma) | Tmax ([2]; Brain tissue) | half-life ([2]; Brain tissue) | Tmax ([2]; Cerebrospinal fluid) | Tmax ([2]; Plasma) | half-life ([2]; Plasma) | further results
1 | C=C(C(=O)Nc1ccc(-c2c(-c3ccc(Oc4nccc(C)n4)c(F)c3)c3c(N)ncnc3n2C)c(F)c1)C1CC1 [Compound 5, N-(4-(4-amino-5-(3-fluoro-4-((4-methylpyrimidin-2-yl)oxy)phenyl)-7-methyl-7H-pyrrolo[2,3-d]pyrimidin-6-yl)-3-fluorophenyl)-2-cyclopropylacrylamide] | 550 nM | 7.3 nM | > 1000 nM | 246 nM |  |  |  |  |  |  |  |  |  |  |  |  | 
2 | C=C(C(=O)Nc1ccc(-c2c(-c3ccc(Oc4cccc(Cl)n4)c(F)c3)c3c(N)ncnc3n2C)cc1)C1CC1 [Compound 9, N-(4-(4-amino-5-(4-((6-chloropyridin-2-yl)oxy)-3-fluorophenyl)-7-methyl-7H-pyrrolo[2,3-d]pyrimidin-6-yl)phenyl)-2-cyclopropylacrylamide] | > 1000 nM | 65.5 nM | > 1000 nM | > 1000 nM |  |  |  |  |  |  |  |  |  |  |  |  | 

More lines, main results first:

Row | IC50 (FGFR1) | IC50 (FGFR2) | IC50 (FGFR4) | IC50 (FGFR3) | F [1] | AUC0-t [1] | Cmax [1] | half-life [1] | AUC0-t ([2]; Brain tissue) | AUC0-t ([2]; Cerebrospinal fluid) | AUC0-t ([2]; Plasma) | Tmax ([2]; Brain tissue) | half-life ([2]; Brain tissue) | Tmax ([2]; Cerebrospinal fluid) | Tmax ([2]; Plasma) | half-life ([2]; Plasma) | SMILES | further results
3 | 407 nM | 12 nM | > 1000 nM | 149 nM |  |  |  |  |  |  |  |  |  |  |  |  | C=C(C(=O)Nc1ccc(-c2c(-c3ccc(Oc4nccc(C)n4)c(F)c3)c3c(N)ncnc3n2C)cn1)C1CC1 [Compound 2, N-(5-(4-amino-5-(3-fluoro-4-((4-methylpyrimidin-2-yl)oxy)phenyl)-7-methyl-7H-pyrrolo[2,3-d]pyrimidin-6-yl)pyridin-2-yl]-2-cyclopropylacrylamide] | 
4 | > 1000 nM | 23.8 nM | > 1000 nM | > 1000 nM | 90.8% | 3190 ng·h/mL | 938 ng/mL | 1.9 h | 524 h*ng/mL or h*ng/g | 59 h*ng/mL or h*ng/g | 50857 h*ng/mL or h*ng/g | 1 h | 3 h | 0.5 h | 1 h | 3.1 h | C=C(C(=O)Nc1ccc(-c2c(-c3ccc(Oc4nccc(C)n4)c(F)c3)c3c(N)ncnc3n2C)cc1)C1CC1 [Compound 1, N-(4-(4-amino-5-(3-fluoro-4-((4-methylpyrimidin-2-yl)oxy)phenyl)-7-methyl-7H-pyrrolo[2,3-d]pyrimidin-6-yl)phenyl]-2-cyclopropylacrylamide] | half-life ([2]; Cerebrospinal fluid): 6.3 h
5 | 165 nM | 1.7 nM | > 1000 nM | 64.2 nM | 24.2% | 787 ng·h/mL | 273 ng/mL | 0.9 h | 277 h*ng/mL or h*ng/g | 9 h*ng/mL or h*ng/g | 21966 h*ng/mL or h*ng/g | 1 h | 1.7 h | 1 h | 0.5 h | 1.8 h | C=C(C(=O)Nc1ccc(-c2c(-c3ccc(Oc4nccc(C)n4)c(F)c3)c3c(N)ncnc3n2C)c(Cl)c1)C1CC1 [Compound 4, N-(4-(4-amino-5-(3-fluoro-4-((4-methylpyrimidin-2-yl)oxy)phenyl)-7-methyl-7H-pyrrolo[2,3-d]pyrimidin-6-yl)-3-chlorophenyl)-2-cyclopropylacrylamide] | IC50 (FGFR2 N549H): 5.2 nM; IC50 (FGFR3 V555M): 120 nM; IC50 (FGFR2 V564I): 15 nM; IC50 (FGFR2 V564F): 0.5 nM; IC50 (FGFR3 K650M): 271 nM
